# Assay results reported in PubChem BioAssay AID1324 (NMMLSC, 2008).
# Activity calls are given as the source filed them. How the calls were made is not given here.
# Target: glutathione S-transferase (GST-GSH binding)
# Test: GST–glutathione interaction disruption – biochemical, multiplex beads, flow cytometry, HPSMTB buffer, profiling panel (AID 1324);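 further: glutathione beads loaded with GST-green fluorescent protein and no fluorescent Bim peptide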
# Settings: multiplex bead flow cytometry, MCF
row,SMILES,EC50
1,CN1CCc2cccc3c2[C@@H]1Cc1ccc(O)c(O)c1-3,inactive
2,COc1ccc(C2=Nn3c(nnc3-c3ccco3)SC2)cc1OC,4.6 µM
3,COc1ccc(OC)c(-n2c(=O)c3ccccc3c3ccccc3c2=O)c1,inactive
4,CCOCCCNc1nc(=S)[nH]c2cc(OC)c(OC)cc12,inactive
5,COc1cc(OC)c([N+](=O)[O-])cc1/C=N/NC(=O)c1ccncc1,inactive
6,COc1ccc2nc(-c3ccco3)c(-c3ccco3)nc2c1,inactive
7,O=S1(=O)N=C(N(CCO)/N=C/c2ccncc2)c2ccccc21,inactive
8,COCCCn1c(N)c(C(=O)Nc2sc3c(c2C(=O)OC)CCCC3)c2nc3ccccc3nc21,2.55 µM

# Same assay, conditions: multiplex bead flow cytometry, MCF, active compounds read high, concentration not given here
row,SMILES,percent span inhibition
1,Cc1cc(-c2csc(N)n2)c(C)n1C,inactive
2,CN(C)C(=O)N1CCC(C(=O)NC2CCCCCCC2)CC1,inactive
3,Cc1csc(SCCn2c(N3CCN(c4ccccc4)CC3)nc3c2c(=O)[nH]c(=O)n3C)n1,inactive
4,COC(=O)CCC(=O)Nc1sc(Cc2ccccc2)c(C)c1C(N)=O,inactive
5,O=C(CC1NCCNC1=O)Nc1cccc([N+](=O)[O-])c1 (centres undefined),inactive
6,Cc1cnnn1-c1ccc(C(=O)CCl)cc1,inactive
7,CCOC(=O)C1=C(Cc2ccc(OC)cc2)C(=O)c2ccccc2C1=O,inactive
8,CCN(CC)CCN(C(=O)c1ccc(N2C(=O)CCC2=O)cc1)c1nc2cc3c(cc2s1)OCCO3,inactive
9,CC(C(=O)Nc1cc([N+](=O)[O-])ccc1Cl)N1CCN(c2ccc(O)cc2)CC1 (centres undefined),inactive
10,CC1Cc2ccccc2N1C(=O)c1ccc(N2CCCC2)c([N+](=O)[O-])c1 (centres undefined),inactive
11,Cc1[nH]nc(SCC(=O)NCc2ccc(F)cc2)c1[N+](=O)[O-],inactive
12,CCOc1cc(NC(=S)NC)c(OCC)cc1NC(=O)c1ccc(OC)cc1,inactive
13,COc1ccc(/C=C/C(=O)Nc2sc(Cc3ccccc3)c(C)c2C(N)=O)cc1,inactive
14,CN1/C(=C\C(=O)Nc2ccc(Cl)cc2)C(C)(C)c2ccccc21,inactive
15,O=C(C[n+]1ccc(-c2nnc3n2CCC3)cc1)c1ccc(Cl)cc1,inactive
16,CNCc1ccccc1Sc1cc(O)ccc1O,inactive
17,O=C(NNC(=O)C12CC3CC(CC(C3)C1)C2)c1ccco1,inactive
18,CCOc1ccccc1/C=N/NC(=O)CNC(=O)COc1ccccc1,inactive
19,COc1ccc(N2CCN(CCCNC(=O)CCCn3c(=O)[nH]c4ccsc4c3=O)CC2)cc1,inactive
20,Cc1c(N=C2C=CC(=O)c3ccccc32)c(=O)n(-c2ccccc2)n1C,inactive
21,CC(C)(C)C(=O)NC(NC(=S)Nc1ccc(S(N)(=O)=O)cc1)C(Cl)(Cl)Cl (centres undefined),inactive
22,c1ccc(Nc2nc(-c3ccncc3)cs2)cc1,inactive
23,C=CCSc1nc(N)c2c(C)c(C)sc2n1,inactive

row,SMILES,percent span inhibition
1,CCOc1ccc(NCc2ccccc2OCc2cccc(F)c2)cc1,inactive
2,CCC(CC)C(=O)Nc1cccc(S(=O)(=O)c2cccc(NC(=O)C(CC)CC)c2)c1,inactive
3,O=C(/C=C/c1ccc(-c2ccccc2)o1)c1ccccc1,inactive
4,CN(CC(=O)O/N=C(\N)c1ccc([N+](=O)[O-])cc1)S(=O)(=O)c1ccccc1,inactive
5,CCN(CC)c1ccc(NC(=O)c2ccccc2F)cc1S(=O)(=O)Nc1ccccc1OC,inactive
6,Cc1cc2n(c1)CCn1c(C)ccc1-2,inactive
7,COc1cc(/C=C2\S/C(=N/S(=O)(=O)c3ccccc3)NC2=O)c([N+](=O)[O-])cc1OC,inactive
8,CC(NC(=O)Nc1ccccn1)N1C(=O)C2C3C=CC(C3)C2C1=O (centres undefined),inactive
9,O=C(CSc1nnc(-c2ccco2)n1Cc1ccccc1)c1ccccc1,inactive
10,CN(C)c1ccc(Nc2nc(-c3cccnc3)cs2)cc1,inactive
11,Cc1cc(C)c(C)c(S(=O)(=O)N2CCN(CC(=O)NC(=O)NCc3ccccc3)CC2)c1C,inactive
12,CC(=O)OCCCNc1cc(Sc2nc3ccccc3s2)c2nonc2c1[N+](=O)[O-],inactive
13,Cn1c(=O)c(C(=O)COC(=O)c2cc(-c3ccco3)nc3ccccc23)c(N)n(Cc2ccccc2)c1=O,inactive
14,CN(CCO)c1cc(Sc2nc3ccccc3s2)c2nonc2c1[N+](=O)[O-],inactive
15,Cc1cc(N2CCN(C)CC2)nc2ccc(NC(=S)N3CCN(c4cccc(Cl)c4)CC3)cc12,inactive
16,O=C(NC1=C(Nc2ccc(F)cc2)C(=O)c2ccccc2C1=O)c1ccc(Cl)cc1,inactive
17,CC(CCc1ccccc1)NC(=O)C1CCN(S(=O)(=O)N2CCCCC2)CC1 (centres undefined),inactive
18,CCN(CC)c1ccc(NC(=O)c2cccc(C)c2)cc1S(=O)(=O)Nc1ccccc1OC,inactive
19,N/C(=N\N=C/c1ccc(Br)cc1)N/N=C\c1ccc(Br)cc1,inactive
20,Cc1ccc(NC(=O)c2cc(S(=O)(=O)NCCC3=CCCCC3)ccc2F)cc1F,inactive
21,Cc1ccc(S(=O)(=O)N2CCCCC2)cc1NC(=O)COC(=O)c1ccccc1F,inactive
22,O=C(NC1=C(Nc2ccc(Cl)cc2)C(=O)c2ccccc2C1=O)c1ccccc1,inactive
23,COc1cc(/C=C2\SC(=S)NC2=O)ccc1OS(=O)(=O)c1ccccc1,inactive

row,SMILES,percent span inhibition
1,CCOC(=O)N1CCC(c2cc(=O)n(-c3ccccc3)[nH]2)CC1,inactive
2,COc1ccc(C(=O)Nc2ccc(NC(=O)c3cccs3)cc2)cc1Cl,inactive
3,CC(=O)Nc1ccc(-n2cc(-c3ccccc3)[nH]c2=S)cc1,inactive
4,Fc1ccccc1-n1cc(-c2ccccc2)[nH]c1=S,inactive
5,O=C(Nc1ccc(Cl)cn1)Nc1ccccc1F,inactive
6,OC(CNC1CCCCC1)COCCOc1ccc(Br)cc1 (centres undefined),inactive
7,Cc1ccc(-c2cc(C(=O)Nc3nccs3)c3ccccc3n2)o1,inactive
8,O=[N+]([O-])c1c(NCCO)cc(Sc2nc3ccccc3s2)c2nonc12,inactive
9,CCCCc1ccc(NC(=S)NCc2ccc(OC)cc2)cc1,inactive
10,CNC(=O)/C(C#N)=C/c1c(N(Cc2ccccc2)Cc2ccccc2)nc2c(C)cccn2c1=O,inactive
11,Cc1ccc(NC2=C(NC(=O)c3ccccc3)C(=O)c3ccccc3C2=O)cc1Cl,inactive
12,c1ccc(-c2nnc(OCCN3CCOCC3)c3ccccc23)cc1,inactive
13,COc1cccc2c1C(=O)C=C(C)C2=O,inactive
14,COc1ccc(OC)c2sc(NC(=O)c3ccc(Br)s3)nc12,inactive
15,CCOC(=O)C1=C(Cc2ccc(C)cc2)C(=O)c2ccccc2C1=O,inactive
16,O=C(OCc1nc2ccccc2[nH]1)C12CC3CC(CC(C3)C1)C2,inactive
17,CN(C)c1ccc(C(=O)/C=C/c2ccc(Br)cc2)cc1,inactive
18,Cc1cc(C(=O)NCCCN(C)C)c2ccccc2n1,inactive
19,NC(=O)c1c(NC(=O)C2CCCO2)sc2c1CCCCC2 (centres undefined),inactive
20,Clc1nc(NCc2cccnc2)nc(N2CCOCC2)n1,inactive
21,COc1ccc(N2C(=O)C(Cl)=C(Nc3ccccc3O)C2=O)cc1,inactive
22,O=C(CSc1nnc(-c2ccccc2)c(-c2ccccc2)n1)N1CCc2ccccc21,inactive
23,Cc1cc(NC(=O)CCSc2ccccc2)ccc1Br,inactive

row,SMILES,percent span inhibition
1,Cc1ccc(-c2cc(-c3ccc(F)cc3)c(C#N)c(N)n2)o1,inactive
2,O=C(NCCc1ccccc1)c1ccc2nc(-c3ccco3)c(-c3ccco3)nc2c1,inactive
3,Cc1cc[n+]2cc(-c3cccc([N+](=O)[O-])c3)c(-c3cccc([N+](=O)[O-])c3)cc2c1,inactive
4,COC(=O)c1[nH]c2ccccc2c1NC(=O)c1ccccc1[N+](=O)[O-],inactive
5,Cc1nc2ncccn2c1-c1csc(Nc2ccccc2)n1,inactive
6,CCC(=O)NC(c1ccc(C)cc1)c1cc([N+](=O)[O-])c2cccnc2c1O (centres undefined),inactive
7,Clc1ccc(N=c2ssnc2Cl)nc1,inactive
8,CC1(C(=O)N(CC(=O)NC2CCCC2)Cc2ccco2)CC(=O)N=C2C=CC=CN21 (centres undefined),inactive
9,CCOC(=O)CSC1=NC(=O)/C(=C/c2ccc(Br)cc2)S1,inactive
10,COc1ccc(OC)c(-n2c(-c3ccc(C)cc3)n[nH]c2=S)c1,inactive
11,CCOC(=O)C1(CC/C(C)=N\NC(N)=O)CC(C)(C)OC1=O (centres undefined),inactive
12,Cc1cccc(N2C(S)=C(C#N)C(=O)NC2c2cccs2)c1 (centres undefined),inactive
13,O=C(Nc1n[nH]c(C(F)(F)F)n1)C1CC1,inactive
14,Cc1ccc(C)c(/C=C/C(=O)c2ccccc(=O)c2O)c1,inactive
15,Cc1ccc(/C=C2\CCCC3=C2NC(=S)NC3c2ccc(C)cc2)cc1 (centres undefined),inactive
16,COc1ccccc1-n1c(-c2ccccc2)c[nH]c1=S,inactive
17,Cc1ccc(C(=O)N/N=C2/NC(=O)CC(C(=O)Nc3ccccc3)S2)cc1 (centres undefined),inactive
18,COC(=O)c1c(NC(=O)COc2ncnc3ccccc23)sc(C)c1C,inactive
19,CCCCN(C(=O)CCC(=O)Nc1cc(C)on1)C(C(=O)NC(C)(C)C)c1cccc(OC)c1OC (centres undefined),inactive
20,C/C(=N\NC(=O)Cc1cccn1C)c1ccc2ccccc2c1,inactive
21,CCOc1cccc(CNc2ccc(O)cc2)c1OCc1ccccc1Cl,inactive
22,Cc1c(N2C(=O)c3ccc4c5c(ccc(c35)C2=O)CC4)c(=O)n(-c2ccccc2)n1C,inactive
